The text below walks through data of patent US10933141B2, “Formulations with reduced degradation of polysorbate” (Genentech, Inc., priority 2015, dated 2021).

“Also recorded” adds a separate entry of the source.

Data set [1] deals with T1, porcine pancreatic lipase (PPL) (Sus scrofa, UniProt P00591).
T1 construct: purchased Sigma Aldrich Inc. (St. Louis, Mo.)
T1 sequence (P00591 1-450): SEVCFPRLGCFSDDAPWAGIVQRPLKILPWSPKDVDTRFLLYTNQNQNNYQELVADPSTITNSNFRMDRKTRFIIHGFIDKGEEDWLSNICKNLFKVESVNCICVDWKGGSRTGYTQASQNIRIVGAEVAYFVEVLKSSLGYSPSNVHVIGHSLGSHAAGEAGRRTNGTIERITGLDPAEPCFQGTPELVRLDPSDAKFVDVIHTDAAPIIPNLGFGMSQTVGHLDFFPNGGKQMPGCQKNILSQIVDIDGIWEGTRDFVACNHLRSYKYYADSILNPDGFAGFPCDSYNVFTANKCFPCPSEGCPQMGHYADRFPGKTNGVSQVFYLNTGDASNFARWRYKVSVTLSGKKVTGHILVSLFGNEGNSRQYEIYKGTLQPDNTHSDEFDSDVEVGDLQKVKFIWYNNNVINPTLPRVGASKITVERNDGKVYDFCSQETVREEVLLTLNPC
Nature of the data set: Enzymatic degradation of PS20 by PPL, 4.5 hour digestion, PS20 by RP-ELSD. The settings on record: for decrease in PS20: 0.02% PS20, pH 5.5, 15 μg/mL PPL 4.5 hours room temperature, excipient 15% w/v (cyclodextrins 106 mM); for inhibitory effect on enzymatic PS20 degradation (in words): 0.02% PS20, 15 μg/mL PPL 4.5 hours, excipient 15% w/v (methionine 10 mg/mL). The class given is biochemical. As to the method: Polysorbate concentration was determined using reverse phase ultra-performance liquid chromatography using evaporative light scattering detection (RP-ELSD). Samples were analyzed using an Agilent 1100 series high performance liquid chromatography system (HPLC) fitted with a Waters Oasis MAX cartridge column (20×2.1 mm, 30 μm particle size). The HPLC system was set up with a switching valve directing column flow-through to either waste or a Varian 380-LC evaporative light scattering detector set to 100° C. The mobile phases consisted of 2% formic acid in water (Pump A) and 2% formic acid in isopropanol (Pump B). The pump gradient was isocratic at 10% pump B during equilibration, linear to 20% pump B for 1 minute, isocratic at 20% pump B for 2.4 minutes, linear to 100% pump B for 0.1 minutes, isocratic at 100% pump B for 1.1 minutes, linear to 10% pump B for 0.1 minutes, and finally isocratic at 10% pump B for 1.9 minutes. The switching valve directed column flow-through to waste at the beginning of every injection, and then directed flow to the detector after 2.4 minutes until the end of the gradient. In order to quantitate the PS20 concentration, a standard curve was generated by injecting 20 μL of solutions containing between 0% w/v and 0.4% w/v PS20.
Several excipients were tested for their ability to protect PS20 against enzymatic hydrolysis including HP-α-CD, HP-β-CD, HP-γ-CD, SBE-β-CD, PVP, PEG 1500, sucrose, and methionine. Solutions of each excipient in pH 5.5 buffer were prepared containing a final concentration of 0.02% PS20 after enzyme addition. The concentration of HP-α-CD, HP-β-CD, HP-γ-CD, and SBE-β-CD in the excipient solutions was 106 mM. […] The remaining excipients (PVP, PEG 1500, sucrose) were added to 15% w/v to match the % w/v of HP-β-CD. Samples were digested with 15 μg/mL PPL enzyme for 4.5 hours at room temperature, followed by 30 minutes of heat inactivation at 85° C. Each sample was analyzed for PS20 concentration using high performance liquid chromatography with an inline evaporative light scattering detector. Samples were then placed at 5° C. overnight to allow for the formation of particles and were analyzed for visible and subvisible particles as described previously.
The effect of the HP-β-CD concentration at different PS20 concentrations on the enzymatic degradation of PS20 was assessed to identify optimal concentrations for inhibition of enzymatic PS20 degradation. To evaluate the dependence of PS20 degradation on HP-β-CD concentration, the PS20 content was determined using RP-ELSD for triplicate samples containing different HP-β-CD concentrations at various PS20 concentrations. Samples containing 0.005% (FIG. 14A), 0.02% (FIG. 14B), 0.1% (FIG. 14C), and 0.4% PS20 (FIG. 14D) were digested using 15 μg/mL of PPL enzyme for 4.5 hours at room temperature in protein-free samples containing no excipient (control), 0, 0.5, 5, and 15% (w/v) HP-β-CD. PPL was added to each of the treatment solutions at a ratio of 75 […], with an equivalent volume of buffer added to the control solutions to determine the effect of HP-β-CD to polysorbate ratio on enzymatic degradation. Digestion was stopped by heat inactivation in an 85° C. water bath for 30 minutes. Each sample was analyzed for PS20 concentration using high performance liquid chromatography with an inline evaporative light scattering detector as described above. Samples were then placed at 5° C. overnight to allow for the formation of particles and placed on ice during analysis for visible and subvisible particles as described above.

Data set [2] is described as follows: Oxidative PS20 degradation with AAPH, PS20 by RP-ELSD. The class given is physicochemical. The settings on record: 15% (w/v) excipient; 5 mM AAPH at 40° C. for 24 hours; n=3. As to the method:
Polysorbate concentration was determined using reverse phase ultra-performance liquid chromatography using evaporative light scattering detection (RP-ELSD). Samples were analyzed using an Agilent 1100 series high performance liquid chromatography system (HPLC) fitted with a Waters Oasis MAX cartridge column (20×2.1 mm, 30 μm particle size). The HPLC system was set up with a switching valve directing column flow-through to either waste or a Varian 380-LC evaporative light scattering detector set to 100° C. The mobile phases consisted of 2% formic acid in water (Pump A) and 2% formic acid in isopropanol (Pump B). […] In order to quantitate the PS20 concentration, a standard curve was generated by injecting 20 μL of solutions containing between 0% w/v and 0.4% w/v PS20. For excipients which affected the migration time of PS20 through the column, PS20 standard curve solutions containing the relevant excipient were included in the analysis to facilitate accurate quantitation.
The ability of cyclodextrins to inhibit oxidative PS20 degradation was evaluated using 2,2′-Azobisisobutyramidinium (AAPH), which has been shown previously to degrade PS20 (Borisov et al., J. Pharm. Sci. 104:1005-1018 (2015)). […] Polysorbate 20 degradation was determined by RP-ELSD for samples oxidized with 5 mM AAPH at 40° C. for 24 hours containing no excipient (control), 15% (w/v) sucrose, and 15% (w/v) HP-β-CD.

Take “2-hydroxypropyl-α-cyclodextrin [HP-α-CD]”: in data set [1], the “decrease in PS20” value was 1% and the “inhibitory effect on enzymatic PS20 degradation (in words)” value (from here on “inhibitory effect”) is listed as “significant inhibitory effects; also recorded: able to prevent enzymatic degradation of PS20”.
Take “2-hydroxypropyl-β-cyclodextrin [HP-β-CD]”: in data set [2], the “decrease in relative percent PS20” value came to 3.6%. In addition, the “HP-β-CD concentration required to fully inhibit PS20 degradation” value in data set [1] (0.005% PS20, PPL 4.5 hours) stood at 0.5%; in data set [1] (0.1% PS20, PPL 4.5 hours) it was 15%. In addition, the “decrease in PS20” value in data set [1] stood at 7%. For the same compound, the “inhibitory effect” value in data set [1] is “significant inhibitory effects; also recorded: able to prevent enzymatic degradation of PS20”. In addition, the “HP-β-CD:PS20 ratio required to inhibit enzymatic PS20 degradation” value in data set [1] (PPL 4.5 hours, across PS20 and HP-β-CD concentrations) is on record as no less than 37.5 w/w. For the same compound, the “PS20 remaining (Relative %)” value in data set [1] ([HP-β-CD]/[PS20] wt/wt ratio 0.5 (mole ratio 0.4), PPL 4.5 hours) was determined as 41.4 Relative %; in data set [1] ([HP-β-CD]/[PS20] wt/wt ratio 1.25 (mole ratio 1.1), PPL 4.5 hours), 41.2 Relative %; in data set [1] ([HP-β-CD]/[PS20] wt/wt ratio 2.5 (mole ratio 2.2), PPL 4.5 hours), 44.0 Relative %; in data set [1] ([HP-β-CD]/[PS20] wt/wt ratio 5 (mole ratio 4.35), PPL 4.5 hours) it was 65.3 Relative %; in data set [1] ([HP-β-CD]/[PS20] wt/wt ratio 12.5 (mole ratio 10.9), PPL 4.5 hours), 86.4 Relative %; in data set [1] ([HP-β-CD]/[PS20] wt/wt ratio 25 (mole ratio 21.8), PPL 4.5 hours), 90.3 Relative %. In addition, the “PS20 remaining (Relative %)” value worked out at 106.7 Relative % in data set [1] ([HP-β-CD]/[PS20] wt/wt ratio 37.5 (mole ratio 32.6), PPL 4.5 hours); 98.6 Relative % in data set [1] ([HP-β-CD]/[PS20] wt/wt ratio 50 (mole ratio 43.5), PPL 4.5 hours); 93.9 Relative % in data set [1] ([HP-β-CD]/[PS20] wt/wt ratio 100 (mole ratio 87.0), PPL 4.5 hours); 108.3 Relative % in data set [1] ([HP-β-CD]/[PS20] wt/wt ratio 150 (mole ratio 130.5), PPL 4.5 hours); 101.9 Relative % in data set [1] ([HP-β-CD]/[PS20] wt/wt ratio 250 (mole ratio 217.6), PPL 4.5 hours); 104.2 Relative % in data set [1] ([HP-β-CD]/[PS20] wt/wt ratio 750 (mole ratio 652.7), PPL 4.5 hours). Besides, the “PS20 remaining (Relative %)” value in data set [1] ([HP-β-CD]/[PS20] wt/wt ratio 1000 (mole ratio 870.2), PPL 4.5 hours) stood at 104.3 Relative %; in data set [1] ([HP-β-CD]/[PS20] wt/wt ratio 3000 (mole ratio 2610.6), PPL 4.5 hours), 112.4 Relative %.
On to “2-hydroxypropyl-γ-cyclodextrin [HP-γ-CD]”, for which, in data set [1], the “inhibitory effect” value is on record as “able to prevent enzymatic degradation of PS20”.
Regarding `OC[C@H]1O[C@@](CO)(O[C@H]2O[C@H](CO)[C@@H](O)[C@H](O)[C@H]2O)[C@@H](O)[C@@H]1O` [sucrose, reference compound], the “decrease in relative percent PS20” value in data set [2] turned out to be 9.8%. Further, in data set [1], the “decrease in PS20” value is listed as 58% and the “inhibitory effect” value is “does not have an inhibitory effect”.
